target: T1, recombinant rat CyPA-GST fusion protein (Rattus norvegicus, UniProt P10111); assay: Rotamase (PPIase) inhibition, chymotrypsin-coupled cuvette assay, rat CyPA-GST fusion protein; assay type: biochemical; details: Table A, value with asterisk: recombinant rat CyPA-GST fusion protein
T1 construct: made in house; host or cells: E. coli BL21
T1 sequence (P10111 2-164): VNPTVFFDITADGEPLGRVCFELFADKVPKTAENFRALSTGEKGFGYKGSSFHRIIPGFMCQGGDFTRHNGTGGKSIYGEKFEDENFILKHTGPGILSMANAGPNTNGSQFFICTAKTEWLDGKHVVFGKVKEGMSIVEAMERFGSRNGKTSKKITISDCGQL

Question: With `O=C(Nc1cc(S(=O)(=O)NC(c2ccccc2)c2ccccc2)ccc1Cl)c1cc(Cl)cc(Cl)c1` [Compound 52, (3,5-Dichlorophenyl)-N-(5-{[(diphenylmethyl)amino]sulfonyl}-2-chlorophenyl)formamide] as the compound, how does the IC50 read?
Answer: 861 nM

Question: `O=C(Nc1ccc(Cl)c(C(=O)c2ccccc2)c1)c1cc(Cl)cc(Cl)c1` [Compound 51, (3,5-Dichlorophenyl)-N-[4-chloro-3-(phenylcarbonyl)phenyl]formamide] was tested. Which IC50 did it give?
Answer: 1550 nM

Question: Which IC50 does the source give for `COc1ccc(NS(=O)(=O)c2cccc3ccccc23)cc1OCCc1cccc2ccccc12` [Compound 50] here?
Answer: 978 nM

Question: With `COc1ccc(NC(=O)Cc2cccc3ccccc23)cc1OCc1cccc2ccccc12` [Compound 48, N-[4-methoxy-3-(naphthylmethoxy)phenyl]-2-naphthylethanamide] as the compound, how does the IC50 read?
Answer: 1190 nM

Question: `S=C(Nc1cc(Cl)cc(Cl)c1)Nc1cc(OCc2cccc3ccccc23)ccc1Br` [Compound 33, [(3,5-Dichlorophenyl)amino]{[2-bromo-5-(naphthylmethoxy)phenyl]amino}methane-1-thione] was tested. Which IC50 did it give?
Answer: 707 nM

Question: Which IC50 does the source give for `COc1ccc(NC(=O)Nc2cc(Cl)cc(Cl)c2)cc1OCc1cc(Cl)cc(Cl)c1` [Compound 28, 1-(3,5-Dichlorophenyl)-3-[3-(3,5-dichlorobenzyloxy)-4-methoxyphenyl]urea] here?
Answer: 914 nM

Question: How did the IC50 turn out when `COc1ccc(NC(=S)NC(=O)c2ccccc2)cc1COc1cc(Cl)cc(Cl)c1` [Compound 46, 1-[3-(3,5-Dichlorophenoxy)methyl-4-methoxyphenyl]-3-benzoylthiourea] was run?
Answer: 3770 nM

Question: `S=C(Nc1cc(Cl)cc(Cl)c1)Nc1ccc(Nc2ccc(Cl)cc2)c(NC(=S)Nc2cc(Cl)cc(Cl)c2)c1` [Compound 36, [(3,5-dichlorophenyl)amino]{[3-({[(3,5-dichlorophenyl)amino]thioxo-methyl}amino)-4-[(4-chlorophenyl)amino]phenyl]amino}methane-1-thione] was tested. Which IC50 did it give?
Answer: 609 nM

Question: For `COc1ccc(NC(=O)C(c2ccccc2)c2ccccc2)cc1OCc1cccc2ccccc12` [Compound 49, N-[4-methoxy-3-(naphthylmethoxy)phenyl]-2,2-diphenylethanamide], which IC50 is on record?
Answer: 1020 nM

Question: Which IC50 does the source give for `COc1ccc(NC(=S)Nc2cc(Cl)cc(Cl)c2)cc1COc1cc(Cl)cc(Cl)c1` [Compound 45, 1-[3-(3,5-Dichlorophenoxy)methyl-4-methoxyphenyl]-3-(3,5-dichlorophenyl)thiourea] here?
Answer: 609 nM

target: human recombinant CyPA (Homo sapiens, UniProt P62937); assay: Semiautomated microtiter plate assay of rotamase activity inhibition, human recombinant CyPA; assay type: biochemical; details: Table B, value without asterisk: human recombinant CyPA
Sequence (P62937 whole entry): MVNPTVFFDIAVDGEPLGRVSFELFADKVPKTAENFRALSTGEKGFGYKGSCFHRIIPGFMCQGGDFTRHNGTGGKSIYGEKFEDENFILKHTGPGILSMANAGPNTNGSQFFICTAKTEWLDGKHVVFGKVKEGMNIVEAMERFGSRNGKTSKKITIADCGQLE
Method: Rotamase inhibition was determined using a semiautomated microtiter plate assay modification of the above described assay [see Küllertz et al., Clin. Chem. 44, 502-508 (1998)]. All dilutions of CyPA, peptide substrate, and chymotrypsin were made in 35 mM ice-cold HEPES buffer. Fifty μL of CyPA solution is added to 50 μL of the peptide substrate solution (Phe-Pro-Phe p-nitroanilide, 0.16 mg/ml) in a glass microtiter well plate (the concentration of human recombinant CyP being adjusted so that the reaction rate is increased by a factor of 3 as compared to an uncatalyzed control reaction wherein the peptide substrate is degraded by chymotrypsin alone, in the absence of CyPA and test compound). Using a Beckman Multimek™ 96 automated 96-channel pipettor, 5 μL of test compound solution, or a DMSO blank, were added to each well for a 30 minute preincubation at 4° C. One hundred μL of chymotrypsin solution (1 mg/mL) were added to each well and the absorbance at 390 nm versus time was monitored for 9-10 minutes using a BioRad Ultramark plate reader maintained at 4° C. and the rate constants were determined from the absorbance versus time data files.
IC50 values which were obtained for representative compounds are presented in the following Table B. The cyclophilin utilized was a human recombinant CyPA. […] While CyP A was used in these examples, other CyP proteins can be substituted.

Question: How did the IC50 turn out when `O=C(Nc1cccc(C(F)(F)F)c1)c1cc(Oc2ccc3ccccc3c2)cc(C(=O)Nc2cccc(C(F)(F)F)c2)c1` [Compound 17, (5-(2-naphthyloxy)-3-{N-[3-(trifluoromethyl)phenyl]carbamoyl}phenyl)-N-[3-(trifluoromethyl)phenyl]formamide] was run?
Answer: 1980 nM

Question: How did the IC50 turn out when “(5-(2-(2-5,6,7,8-tetrahydronaphthyl)ethyl)-3-{N-[3-(trifluoromethyl)phenyl]carbamoyl}phenyl)-N-[3-(trifluoromethyl)phenyl]formamide [Compound 23]” was run?
Answer: 7850 nM

Question: With `O=C(Nc1cc(CN2C(=O)c3ccccc3C2=O)cc(NC(=O)c2cccc(C(F)(F)F)c2)c1)c1cccc(C(F)(F)F)c1` [Compound 12, N-(5-[(1,3-dioxoisoindolin-2-yl)methyl]-3-{[3-(trifluoromethyl)phenyl]carbonylamino}phenyl)[3-(trifluoromethyl)phenyl]formamide] as the compound, how does the IC50 read?
Answer: 7710 nM

Question: How did the IC50 turn out when “[(3,5-dichlorophenyl)amino]{[3-({[(3,5-dichlorophenyl) amino]thioxo-methyl}amino)-4-(3,5-dimethylpyrazolyl)phenyl]amino}methane-1-thione [Compound 39]” was run?
Answer: 1120 nM

Question: With `O=C(Nc1cccc(C(F)(F)F)c1)c1cc(OCc2ccccc2)cc(OCc2ccccc2)c1` [Compound 8, 3,5-Di(benzyloxy)-3′-(trifluoromethyl)benzanilid] as the compound, how does the IC50 read?
Answer: 4760 nM

Question: With “(5-(2-(2-naphthyl)ethyl)-3-{N-[3-(trifluoromethyl)phenyl]carbamoyl}phenyl)-N-[3-(trifluoromethyl)phenyl]formamide [Compound 24]” as the compound, how does the IC50 read?
Answer: 7170 nM

Question: For `O=C(Nc1cc(CNCc2cccc3ccccc23)cc(NC(=O)c2cccc(C(F)(F)F)c2)c1)c1cccc(C(F)(F)F)c1` [Compound 14, N-(5-{[(naphthylmethyl)amino]methyl}-3-{[3-(trifluoromethyl)phenyl]carbonyl-amino}phenyl)[3-(trifluoromethyl)phenyl]formamide], which IC50 is on record?
Answer: 15100 nM

Question: With “(3,5-dichlorophenyl)-N-[5-({[(3,5-dichlorophenyl)amino]thioxomethyl}amino)-3-{[3-(trifluoromethyl)phenyl]amino }phenyl]formamide [Compound 10]” as the compound, how does the IC50 read?
Answer: 933 nM

Question: With `O=C(NCCc1ccc(Cl)c(Cl)c1)c1cc(COc2ccc(Cl)c(Cl)c2)cc(C(=O)NCCc2ccc(Cl)c(Cl)c2)c1` [Compound 19, 1-[(3,4-dichlorophenyl)oxymethy]-3,5-bis-{[2-(3,4-dichlorophenyl)ethyl]aminocarbonyl}benzene] as the compound, how does the IC50 read?
Answer: 2800 nM

Question: “3-{3,5-Bis-[3-(3,5-dichlorophenyl)ureido]-phenyl}propionic acid methyl ester [Compound 5]” was tested. Which IC50 did it give?
Answer: 1300 nM

Question: With `O=C(Nc1cccc(C(F)(F)F)c1)c1cc(C(=O)Nc2cccc(C(F)(F)F)c2)cc(-c2cccc3ccccc23)c1` [Compound 3, 5-Naphthalen-1-yl-N,N′-bis-(3-trifluoromethyl-phenyl)isophthalamide] as the compound, how does the IC50 read?
Answer: 3420 nM

Question: With `N#Cc1cccc(NC(=O)c2cc(OCc3ccc(-c4ccccc4C#N)cc3)cc(C(=O)Nc3cccc(C#N)c3)c2)c1` [Compound 22, 1-[4-(2-cyanophenyl)benzyl]loxy-3,5-bis-[(3-cyanophenyl)aminocarbonyl]benzene] as the compound, how does the IC50 read?
Answer: 4710 nM

Question: With `COC(=O)CCc1cc(NC(=O)Nc2cc(Cl)cc(Cl)c2)cc(NC(=O)Nc2cc(Cl)cc(Cl)c2)c1` [Compound 1, 3-{3,5-Bis-[3-(3,5-dichloro-phenyl)-ureido]-phenyl}-propionic acid methyl ester] as the compound, how does the IC50 read?
Answer: 2940 nM

Question: With `CC(C)(C)OC(=O)NCCCCCCNC(=O)c1cc(NC(=O)Nc2cc(Cl)cc(Cl)c2)cc(C(=O)Nc2cccc(C(F)(F)F)c2)c1` [Compound 4, {6-[3-[3-(3,5-Dichloro-phenyl)-ureido]-5-(3-trifluoromethyl-phenylcarbamoyl)-benzoylamino]hexyl}carbamic acid tert-butyl ester] as the compound, how does the IC50 read?
Answer: 833 nM

Question: Which IC50 does the source give for `O=C(Nc1cccc(C(F)(F)F)c1)c1cc(C(=O)Nc2cccc(C(F)(F)F)c2)cc(-c2ccc3ccccc3c2)c1` [Compound 18, (5-(2-naphthyl)-3-{N-[3-(trifluoromethyl)phenyl]carbamoyl}phenyl)-N-[3-(trifluoromethyl)phenyl]formamide] here?
Answer: 1320 nM

Question: For `O=S(=O)(c1cc(Cl)cc(Cl)c1)N(c1ccc(Br)c(N(S(=O)(=O)c2cc(Cl)cc(Cl)c2)S(=O)(=O)c2cc(Cl)cc(Cl)c2)c1)S(=O)(=O)c1cc(Cl)cc(Cl)c1` [Compound 30, bis[(3,5-dichlorophenyl)sulfonyl](3-{bis[(3,5-dichlorophenyl)sulfonyl]amino)-4-bromophenyl)amine], which IC50 is on record?
Answer: 10000 nM

Question: `O=C(Nc1cccc(C(F)(F)F)c1)c1cc(O)cc(C(=O)Nc2cccc(C(F)(F)F)c2)c1` [Compound 2, 5-Hydroxy-N,N′-bis-(3-trifluoromethyl-phenyl)-isophthalamide] was tested. Which IC50 did it give?
Answer: 15900 nM

Question: How did the IC50 turn out when `S=C(Nc1cc(Cl)cc(Cl)c1)Nc1ccc(Nc2ccc(Oc3ccccc3)cc2)c(NC(=S)Nc2cc(Cl)cc(Cl)c2)c1` [Compound 40, [(3,5-dichlorophenyl)amino]{[3-({[(3,5-dichlorophenyl)amino]thioxomethyl}amino)-4-[(4-phenoxyphenyl)amino]phenyl]amino}methane-1-thione] was run?
Answer: 719 nM

Question: How did the IC50 turn out when `O=S(=O)(Nc1cc(COc2ccc(Cl)c(Cl)c2)cc(NS(=O)(=O)c2cccc3ccccc23)c1)c1cccc2ccccc12` [Compound 7, 1,3-(1-Naphthalene)-N-[5-(3,4-dichloro-phenoxymethyl)-phenyl]-sulfonamide] was run?
Answer: 2110 nM

Question: `S=C(Nc1cc(Cl)cc(Cl)c1)Nc1cc(NC(=S)Nc2cc(Cl)cc(Cl)c2)cc(Nc2ccc(Br)cc2)c1` [Compound 11, [(3,5-dichlorophenyl)amino]{[3-({[(3,5-dichlorophenyl)amino]thioxomethyl}amino)-5-[(4-bromophenyl)amino]phenyl]amino}methane-1-thione] was tested. Which IC50 did it give?
Answer: 807 nM

Question: For `O=C(Nc1cc(COc2ccc(Cl)c(Cl)c2)cc(NC(=O)c2cc(Cl)cc(Cl)c2)c1)c1cc(Cl)cc(Cl)c1` [Compound 6, 1,3-(3,5-Dichlorophenyl)-N-[5-(3,4-dichlorophenoxymethyl)-phenyl]amide], which IC50 is on record?
Answer: 3790 nM

Question: `O=C(CCCCc1ccccc1)Nc1cc(Br)cc(C(=O)NNC(=S)Nc2ccc(Cl)c(Cl)c2)c1` [Compound 53, 1-{3-[(5-Phenyl)valeroylamino]-5-bromobenzoyl}-4-(3,4-dichlorophenyl) thiosemicarbazide] was tested. Which IC50 did it give?
Answer: 392 nM

Question: `CS/C(=N\c1cc(Cl)cc(Cl)c1)Nc1cc(NC(=O)c2cc(Cl)cc(Cl)c2)cc(Nc2cccc(C(F)(F)F)c2)c1` [Compound 9, N-(5-{[2-aza-2-(3,5-dichlorophenyl)-1-methylthiovinyl]amino}-3-{[3-(trifluoromethyl)phenyl]amino}phenyl)(3,5-dichlorophenyl)formamide] was tested. Which IC50 did it give?
Answer: 1580 nM
